Results on three molecules are retold here after US10053721B2, “Antimicrobial resistance status determination device and method” (bioMerieux, Inc., priority 2015, dated 2018).

Assay type in all cases: cell-based
One experiment relates to S. aureus strains. Description: Methicillin-resistant Staphylococcus aureus (MRSA) assay, optical density growth curves. The note with it: 6 μg/mL cefoxitin. As to the method: The BacT/ALERT® SA bottles were inoculated as described in Example A. The positive broth dilution for the MRSA Assay was performed as follows: broth containing a S. aureus isolate was diluted 1:20 into glass tubes containing 9.0 mL of pre-warmed CAMBH, 0.05% saponin and ±6 μg/mL cefoxitin. Ten (10) S. aureus strains representing diverse phenotypes were tested (5 resistant and 5 sensitive).
(§1) Each strain was sub-cultured without the drug as a growth control. The resistance assay tubes (15 mL tubes fitted with septum screw-caps for diluting and sampling) were incubated in a custom-built, heated, rocking optical density unit, placed within a resistance module, and time-dependent changes in the optical at 660 nm of each culture tube were measured every 45 seconds for periods of up to 12 hours. To maximize microbial growth and minimize measurement noise, tubes were rocked between +/−18 degrees from horizontal at 36 cycles/min for 30 seconds, then returned to the upright position for 15 seconds before an optical density reading was taken.
To detect MRSA directly from positive blood cultures, 10 broth samples containing S. aureus strains representing diverse phenotypes were sub-cultured for up to 12 hours with and without 6 μg/mL of cefoxitin (5 resistant and 5 sensitive strains).
To better discriminate microbial growth from background increases in media optical density, slopes of the growth curves were calculated and plotted (FIGS. 7B, 7D, and 7F).

Experiment [1] relates to K. pneumoniae or E. coli isolates. Kind of experiment: Carbapenem-resistant Enterobacteriaceae (CRE) assay, optical density at 660 nm over time. The note with it: 4 ug/mL imipenem; 8 strains harboring carbapenemase genes. On the procedure: BacT/ALERT® SA bottles were inoculated with 10 mL of SPS-anticoagulated normal human blood and seeded with <100 CFU of S. aureus, E. faecalis, E. faecium, E. coli and K. pneumoniae isolates. Within 15 minutes of flagging positive, the bottles were manually unloaded and either tested immediately or kept on ice until tested. If chilled, a positive bottle was warmed in a 36° C. water bath for 15-20 minutes before removing samples. The positive broth dilutions were performed manually. […]
as §1, with “taken. […]” for “taken.”

For experiment [2], the system named is van B containing E. faecalis strains. Kind of experiment: MIC of van B containing E. faecalis strains.
The test system of another experiment is E. faecium strains. Description: Vancomycin-resistant enterococci (VRE) assay, optical density growth curves. The note with it: 6 μg/mL vancomycin; all 17 resistant E. faecium strains. On the procedure:
(§2) The BacT/ALERT® SA bottles were inoculated as described in Example A. The positive broth dilution for the […] was performed as follows: broth containing E. faecium or E. faecalis isolates was spun for 10 seconds @10,600 g in a 1.5 mL microcentrifuge tube to sediment red blood cells (RBC). One (1.0) mL of the RBC depleted supernatant was recovered and diluted into 4.0 mL of pre-warmed BacT/ALERT® SA media±6 μg/mL vancomycin. Thirty-one (31) E. faecium and 7 E. faecalis strains were tested (23 resistant and 15 sensitive).
(§3) To rapidly detect VRE in positive blood cultures, 38 broth samples containing E. faecium and E. faecalis strains were depleted of red blood cells and then diluted 1:5 in BacT/ALERT® SA blood culture media with and without 6 μg/mL of vancomycin (23 resistant and 15 sensitive strains).

The next experiment deals with E. faecalis strains. The experiment is described as above. As to the method:
as §2, §3

The structures appear in SMILES notation. Like-named read-outs stand apart in the source and are kept apart here. A value given as a limit tells only on which side of the number the result lay.

With `CO[C@@]1(NC(=O)Cc2cccs2)C(=O)N2C(C(=O)O)=C(COC(N)=O)CS[C@@H]21` [cefoxitin], the “time to growth in cefoxitin media” value with S. aureus strains (3 of the 5 MRSA strains) was at most 2 h; in the experiment on S. aureus strains (Positive Control MRSA strain ATCC 43300), at most 2.5 h; with S. aureus strains (weakly resistant MRSA strain (E-test MIC=16 ug/mL)) it was at most 4.5 h. In addition, the “growth in cefoxitin media” value in the experiment with S. aureus strains (5 sensitive S. aureus strains, by 12 hours) was “failed to grow”. For the same molecule, the “slopes of the growth curves” value in the experiment with S. aureus strains (5 sensitive strains, after 60 min equilibration, over 720 min) is reported as “decreasing or flat slopes”.

As to `C[C@@H](O)[C@H]1C(=O)N2C(C(=O)O)=C(SCCN=CN)C[C@H]12` [imipenem], in experiment [1], the “time to growth in the presence of imipenem” value was at most 2 h.

Regarding `CN[C@H](CC(C)C)C(=O)N[C@H]1C(=O)N[C@@H](CC(N)=O)C(=O)N[C@H]2C(=O)N[C@H]3C(=O)N[C@H](C(=O)N[C@H](C(=O)O)c4cc(O)cc(O)c4-c4cc3ccc4O)[C@H](O)c3ccc(c(Cl)c3)Oc3cc2cc(c3O[C@@H]2O[C@H](CO)[C@@H](O)[C@H](O)[C@H]2O[C@H]2C[C@](C)(N)[C@H](O)[C@H](C)O2)Oc2ccc(cc2Cl)[C@H]1O` [vancomycin], the MIC in experiment [2] (CLSI Positive Control strain ATCC 51299, in µg/mL) was 16-24; in experiment [2] (Enterococcus faecalis, three van B containing E. faecalis strains, read-out: MIC), 16 to 64 µg/mL. In addition, the “time to detection of growth with vancomycin” value in the experiment on E. faecium strains was at most 2 h; in the experiment on E. faecalis strains (6 μg/mL vancomycin, three low MIC van B containing E. faecalis strains), 3 to 4 h; in the experiment with E. faecalis strains (delayed van B isolates, starting subculture optical density raised from <0.10 to 0.25-0.45, data not shown), 2 to 2.5 h.
